Test results published in patent publication US12150775B2, “Treatment of a disease of the gastrointestinal tract with an immunosuppressant” (BIORA THERAPEUTICS, INC., priority 2016, dated 2024).

Assay: Tissue, plasma and GI content pharmacokinetics of tacrolimus, oral vs intra-cecal ingestible device delivery
Format: in vivo, Yorkshire-Cross farm swine
Conditions: swine; intra-cecally vs orally administered, 12 hours post-dose (FIG. 76)
Description: No further randomization procedure was employed.
Animals in Group 1 received an ingestible device containing 0.8 mL of vehicle solution (80% alcohol, 20% HCO-60). Animals in Group 2 received orally […] liquid formulation of tacrolimus at 4 mg/0.8 mL per animal (Prograf. 5 mg/mL). Animals in Group 3 received intra-cecally an ingestible device containing tacrolimus at 1 mg in 0.8 mL per ingestible device. Animals in Group 4 received intra-cecally an ingestible device containing tacrolimus at 2 mg in 0.8 mL per ingestible device. Animals in Group 5 received intra-cecally an ingestible device containing tacrolimus at 4 mg in 0.8 mL per ingestible device. […]
Approximately 200˜400 mg of rectal content were collected, if available, with a fecal swab (Copan Diagnostics Nylon Flocked Dry Swabs, 502CS01). The fecal swab was pre-weighed and weighed after collection in the collection tube (Sterile Tube and Cap No Media, PFPM913S), and the sample weight was recorded. […]
For tissue necropsy, small intestine fluid and cecal fluid were collected separately from all the animals into two separate square plastic bottles, and stored at −20° C. The length and diameter of the cecum and the colon was measured from one animal in each group and recorded for reference. […] All samples were weighed, and the tissue sample weights were recorded. […]

C=CC[C@@H]1/C=C(\C)C[C@H](C)C[C@H](OC)[C@H]2O[C@@](O)(C(=O)C(=O)N3CCCC[C@H]3C(=O)O[C@H](/C(C)=C/[C@@H]3CC[C@@H](O)[C@H](OC)C3)[C@H](C)[C@@H](O)CC1=O)[C@H](C)C[C@@H]2OC [tacrolimus, Tacrolimus]
mean concentration of tacrolimus in the cecum tissue: higher | mean concentration of tacrolimus in the proximate colon tissue: higher
